In publication PMC7893776, “Selecting an anti-malarial clinical candidate from two potent dihydroisoquinolones” (Malaria Journal, 2021):
Like-named read-outs stand apart in the source and are kept apart here. Marks after values point to notes of the source that are not given here. Values belong to the compound of their own block, whether it stands above or below them.

Legend:
[1] = pKa by potentiometric titration; assay type: physicochemical
Protocol: Octanol/pH 7.4 buffer partitioning experiments were conducted using a shake flask method, and pKa was assessed by potentiometric titration. Both methods have been described previously.

mouse plasma proteins = experiment: Plasma protein binding (RED), mouse; assay type: in vitro ADME; conditions: average of 20, 4, 0.8 µM
Protocol: A Rapid Equilibrium Dialysis (RED) Plate (Thermo Scientific, catalog #, PI-90007) was used to determine the percentage of compound binding to plasma proteins. The positive control for this experiment was propranolol-HCl (10 mM in DMSO) and the internal standard was warfarin (2 µM in methanol). 10 mM stocks of compound in DMSO were diluted with DMSO acetonitrile (1:4, v:v) to three different intermediate concentrations: high (2 mM), medium (0.4 mM) and low (0.08 mM). A 10 mM stock of propranolol in DMSO was diluted to 0.4 mM concentration in DMSO:acetonitrile (1:4 v:v). In 16 Eppendorf tubes, the control (10 µL) or each of three compound dilutions (10 µL) were each added to separate aliquots of mouse, rat, dog, and human plasma (990 µL). In the RED plate, potassium phosphate buffer (500 µL, 0.1 M, pH 7.4, 37 °C) was placed in every white well and each plasma/compound mixture was added to each of 3 red wells. […] The compounds and internal standard were detected by selected ion recording (SIR). Using the peak area ratio of compound to warfarin from the SIR spectra, the percentage of free compound [1] and bound compound [2] were calculated using the following equations: (1) % free = (concentration buffer chamber/concentration plasma chamber)*100, and (2) % bound = 100 − % free.

[2] = design: method as in PMID 31898492; conditions: human whole blood; cited from earlier work
[3] = test system: recombinant human CYP1A1, 1A2, 1B1, 2B6, 2C8, 2C9, 2C19, 2D6, 3A4; experiment: Recombinant human cytochrome P450 (rhCYP) metabolism; assay type: in vitro ADME
Protocol: SJ733 was first pre-incubated with Bactosomes™ (Cypex Ltd, final P450 concentration: CYP1A1 25 pmol/mL, CYP1A2 100 pmol/mL,CYP1B1 100 pmol/mL, CYP2B6 100 pmol/mL, CYP2C8 50 pmol/mL, CYP2C9, 25 pmol/mL, CYP2C19 100 pmol/mL, CYP2D6 50 pmol/mL and CYP3A4 25 pmol/mL, 0.1 M phosphate buffer pH 7.4) at 37 °C prior to the addition of NADPH (final concentration 1 mM) to initiate the reaction with a final incubation volume of 50 μL. Incubations were also performed using control Bactosomes™ (no P450 enzymes present) to reveal any non-enzymatic degradation. Control compounds known to be metabolized specifically by each P450 isoform were included individually. Test articles and controls were incubated with each isoform for 0, 5, 15, 30, and 45 min. The reactions were stopped by transferring 20 μL of the reaction mixture to 60 μL methanol at the appropriate timepoints.

[4] = design: method as in PMID 31898492; conditions: octanol/pH 7.4 buffer, averaged from high and low concentration partition samples; cited from earlier work
[5] = design: method as in earlier work; conditions: 6 h, cited from earlier work

SMILES: N#Cc1cc(NC(=O)C2c3ccccc3C(=O)N(CC(F)(F)F)C2c2cn[nH]c2)ccc1F (racemic) [(r)-SJ311]
- pKa [1]: 11.1 ± 0.3
- % bound (mouse plasma proteins): 93.7 ± 0.7%

SMILES: N#Cc1cc(NC(=O)C2c3ccccc3C(=O)N(CC(F)(F)F)C2c2cccnc2)ccc1F (racemic) [(r)-SJ733]
- B/P ratio [2]: 0.72 ± 0.02^b
- % bound (mouse plasma proteins): 95.7 ± 0.6%

- formation of metabolites ([3]; incubation with CYP1A1, 1A2, 1B1, 2B6, 2C9, or 2C19 recombinant enzymes): no detectable formation of metabolites
- formation of metabolites ([3]; incubations with CYP2C8, 2D6, and 3A4 recombinant enzymes): Metabolite formation was only observed
SMILES: N#Cc1cc(NC(=O)[C@H]2c3ccccc3C(=O)N(CC(F)(F)F)[C@@H]2c2cccnc2)ccc1F (racemic) [SJ733]

SMILES: N#Cc1cc(NC(=O)[C@H]2c3ccccc3C(=O)N(CC(F)(F)F)[C@@H]2c2cccnc2)ccc1F [(+)-SJ733]
- LogD (7.4) Shake flask [4]: 3.90 ± 0.01^a,b
- Solubility ([5]; FaSSIF-V2 pH 6.5, 37°C): 216^b µM
- Solubility ([5]; FeSSIF-V2 pH 5.8, 37°C): 254^b µM
- Solubility ([5]; Phosphate buffer pH 7.4, 37°C): 246^b µM
